According to ChEMBL document CHEMBL4673218, “Kojyl cinnamate esters are peroxisome proliferator-activated receptor α/γ dual agonists” (Bioorg Med Chem, 2018):
Calls of active or inactive are those of the source. No cut-off for these calls is given here.

Experiments:
[1] = molecular target: T1, PPAR alpha/gamma (Homo sapiens) (UniProt P37231+Q07869); experiment: Agonist activity at PPARalpha/PPARgamma in human AT-MSC cells assessed as upregulation of HMGCR mRNA at 10 uM incubated for 3 days by qRT-PCR analysis; format: cell-based; conditions: Adipose tissue derived mesenchymal stem cell, filed as agonist, time 3.0 day
[2] = molecular target: T1, PPAR alpha/gamma (Homo sapiens); experiment: Agonist activity at PPARalpha/PPARgamma in human AT-MSC cells assessed as upregulation of FABP4 mRNA at 10 uM incubated for 3 days by qRT-PCR analysis; format: cell-based; conditions: Adipose tissue derived mesenchymal stem cell, filed as agonist, time 3.0 day
[3] = molecular target: T1, PPAR alpha/gamma (Homo sapiens); experiment: Agonist activity at PPARalpha/PPARgamma in human AT-MSC cells assessed as upregulation of adiponectin mRNA at 10 uM incubated for 3 days by qRT-PCR analysis; format: cell-based; conditions: Adipose tissue derived mesenchymal stem cell, filed as agonist, time 3.0 day
NHEK [4] = experiment: Inhibition of UVB-induced MMP1 level in human NHEK cells at 10 uM incubated for 24 hrs by ELISA; format: functional, cell-based
NHEK [5] = experiment: Inhibition of UVB-induced PGE2 level in human NHEK cells at 10 uM incubated for 24 hrs by ELISA; format: functional, cell-based
NHEK [6] = experiment: Inhibition of UVB-induced MMP1 mRNA in human NHEK cells at 10 uM incubated for 24 hrs by qRT-PCR analysis; format: functional, cell-based
NHEK [7] = experiment: Inhibition of UVB-induced PTGS2 mRNA in human NHEK cells at 10 uM incubated for 24 hrs by qRT-PCR analysis; format: functional, cell-based
[8] = molecular target: T1, PPAR alpha/gamma (Homo sapiens); experiment: Agonist activity at PPARalpha/PPARgamma in human NHEK cells assessed as upregulation of FASN mRNA at 10 uM incubated for 3 days by qRT-PCR analysis; format: cell-based; conditions: time 3.0 day
[9] = molecular target: T1, PPAR alpha/gamma (Homo sapiens); experiment: Agonist activity at PPARalpha/PPARgamma in human NHEK cells assessed as upregulation of ACACB mRNA at 10 uM incubated for 3 days by qRT-PCR analysis; format: cell-based; conditions: time 3.0 day
[10] = molecular target: T1, PPAR alpha/gamma (Homo sapiens); experiment: Agonist activity at PPARalpha/PPARgamma in human NHEK cells assessed as upregulation of HMGCR mRNA at 10 uM incubated for 3 days by qRT-PCR analysis; format: cell-based; conditions: time 3.0 day
[11] = molecular target: T1, PPAR alpha/gamma (Homo sapiens); experiment: Agonist activity at PPARalpha/PPARgamma in human AT-MSC cells assessed as upregulation of FADS2 mRNA at 10 uM incubated for 3 days by qRT-PCR analysis; format: cell-based; conditions: Adipose tissue derived mesenchymal stem cell, filed as agonist, time 3.0 day
[12] = molecular target: T1, PPAR alpha/gamma (Homo sapiens); experiment: Agonist activity at PPARalpha/PPARgamma in human AT-MSC cells assessed as upregulation of SCD1 mRNA at 10 uM incubated for 3 days by qRT-PCR analysis; format: cell-based; conditions: Adipose tissue derived mesenchymal stem cell, filed as agonist, time 3.0 day
[13] = molecular target: T1, PPAR alpha/gamma (Homo sapiens); experiment: Agonist activity at PPARalpha/PPARgamma in human AT-MSC cells assessed as upregulation of FASN mRNA at 10 uM incubated for 3 days by qRT-PCR analysis; format: cell-based; conditions: Adipose tissue derived mesenchymal stem cell, time 3.0 day
[14] = molecular target: T1, PPAR alpha/gamma (Homo sapiens); experiment: Agonist activity at PPARalpha/PPARgamma in human AT-MSC cells assessed as upregulation of ACACB mRNA at 10 uM incubated for 3 days by qRT-PCR analysis; format: cell-based; conditions: Adipose tissue derived mesenchymal stem cell, time 3.0 day
[15] = molecular target: T1, PPAR alpha/gamma (Homo sapiens); experiment: Agonist activity at PPARalpha/PPARgamma in human AT-MSC cells assessed as upregulation of HMGCS2 mRNA at 10 uM incubated for 3 days by qRT-PCR analysis; format: cell-based; conditions: Adipose tissue derived mesenchymal stem cell, filed as agonist, time 3.0 day
[16] = Induction of adipogenesis in human AT-MSC assessed as adiponectin secretion in IDX medium incubated for 5 days by ELISA; format: functional; conditions: adipose tissue derived mesenchymal stem cell
NHEK [17] = experiment: Inhibition of UVB-induced MMP1 level in human NHEK cells at 1 uM incubated for 24 hrs by ELISA; format: functional, cell-based
NHEK [18] = experiment: Inhibition of UVB-induced PGE2 level in human NHEK cells at 1 uM incubated for 24 hrs by ELISA; format: functional, cell-based
NHEK [19] = experiment: Inhibition of UVB-induced MMP1 mRNA in human NHEK cells at 1 uM incubated for 24 hrs by qRT-PCR analysis; format: functional, cell-based
NHEK [20] = experiment: Inhibition of UVB-induced PTGS2 mRNA in human NHEK cells at 1 uM incubated for 24 hrs by qRT-PCR analysis; format: functional, cell-based
[21] = system: Adipose tissue derived mesenchymal stem cell; experiment: Induction of adipogenesis in human AT-MSC cells assessed as increase in lipid droplet at 30 uM in IDX medium incubated for 5 days by Oil Red O staining based inverted phase microscopy relative to IDX control; format: functional; conditions: time 5.0 day
[22] = Induction of adipogenesis in human AT-MSC assessed as adiponectin secretion at 30 uM in IDX medium incubated for 5 days by ELISA relative to IDX control; format: functional, Adipose tissue derived mesenchymal stem cell; conditions: time 5 day
[23] = system: Adipose tissue derived mesenchymal stem cell; experiment: Induction of adipogenesis in human AT-MSC cells assessed as increase in intracellular lipid accumulation at 30 uM in IDX medium incubated for 5 days by Oil Red O staining based inverted phase microscopy relative to IDX control; format: functional; conditions: time 5.0 day
[24] = Induction of adipogenesis in human AT-MSC assessed as adiponectin secretion at 30 uM in IDX medium incubated for 5 days by ELISA (reference value: 100 +/- 15 pg/ml); format: functional, Adipose tissue derived mesenchymal stem cell; conditions: time 5 day
[25] = molecular target: T2, Peroxisome proliferator-activated receptor gamma (Homo sapiens) (UniProt P37231); experiment: (§1) Binding affinity to human recombinant PPARgamma by Cheng-Prusoff equation based competitive binding TR-FRET assay; conditions: filed as agonist
T2 sequence (whole entry): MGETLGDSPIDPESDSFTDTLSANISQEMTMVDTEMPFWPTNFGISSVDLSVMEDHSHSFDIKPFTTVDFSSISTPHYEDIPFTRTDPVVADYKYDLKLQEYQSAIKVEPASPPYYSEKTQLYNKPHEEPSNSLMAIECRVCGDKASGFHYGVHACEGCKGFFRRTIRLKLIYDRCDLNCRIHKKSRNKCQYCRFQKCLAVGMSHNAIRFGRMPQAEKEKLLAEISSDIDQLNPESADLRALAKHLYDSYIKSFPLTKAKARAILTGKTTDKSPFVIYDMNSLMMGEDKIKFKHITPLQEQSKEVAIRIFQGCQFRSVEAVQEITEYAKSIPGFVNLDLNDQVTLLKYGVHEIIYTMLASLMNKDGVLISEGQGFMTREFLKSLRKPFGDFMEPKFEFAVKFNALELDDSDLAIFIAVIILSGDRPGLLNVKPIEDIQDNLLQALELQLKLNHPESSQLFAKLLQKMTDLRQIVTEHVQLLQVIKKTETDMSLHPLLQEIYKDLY

[26] = molecular target: T3, Peroxisome proliferator-activated receptor gamma (Homo sapiens, UniProt P37231); experiment: as §1
T3 sequence (P37231 whole entry): T2 sequence (whole entry)

[27] = molecular target: T4, Peroxisome proliferator-activated receptor alpha (Homo sapiens) (UniProt Q07869); experiment: (§2) Binding affinity to human recombinant PPARalpha by Cheng-Prusoff equation based competitive binding TR-FRET assay; conditions: filed as agonist
T4 sequence (whole entry): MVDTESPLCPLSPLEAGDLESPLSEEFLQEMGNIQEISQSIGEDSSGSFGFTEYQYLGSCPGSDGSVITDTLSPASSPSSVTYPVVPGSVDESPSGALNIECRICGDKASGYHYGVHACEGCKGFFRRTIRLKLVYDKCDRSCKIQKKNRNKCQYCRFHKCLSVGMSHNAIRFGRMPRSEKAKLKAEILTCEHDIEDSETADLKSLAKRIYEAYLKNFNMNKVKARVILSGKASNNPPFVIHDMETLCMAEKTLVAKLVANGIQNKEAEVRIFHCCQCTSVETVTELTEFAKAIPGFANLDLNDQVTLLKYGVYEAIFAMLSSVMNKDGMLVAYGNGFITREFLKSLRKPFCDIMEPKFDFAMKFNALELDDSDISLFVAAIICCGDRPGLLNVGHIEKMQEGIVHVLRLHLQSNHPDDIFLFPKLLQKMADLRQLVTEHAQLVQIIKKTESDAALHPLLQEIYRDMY

[28] = molecular target: T5, Peroxisome proliferator-activated receptor alpha (Homo sapiens, UniProt Q07869); experiment: as §2
T5 sequence (Q07869 whole entry): T4 sequence (whole entry)

[29] = molecular target: T1, PPAR alpha/gamma (Homo sapiens); experiment: Agonist activity at PPARalpha/PPARgamma in human NHEK cells assessed as upregulation of SCD1 mRNA at 10 uM incubated for 3 days by qRT-PCR analysis; format: cell-based; conditions: filed as agonist, time 3.0 day
[30] = molecular target: T1, PPAR alpha/gamma (Homo sapiens); experiment: Agonist activity at PPARalpha/PPARgamma in human NHEK cells assessed as upregulation of FADS1 mRNA at 10 uM incubated for 3 days by qRT-PCR analysis; format: cell-based; conditions: filed as agonist, time 3.0 day
[31] = molecular target: T1, PPAR alpha/gamma (Homo sapiens); experiment: Agonist activity at PPARalpha/PPARgamma in human NHEK cells assessed as upregulation of HMGCS2 mRNA at 10 uM incubated for 3 days by qRT-PCR analysis; format: cell-based; conditions: filed as agonist, time 3.0 day
[32] = molecular target: T1, PPAR alpha/gamma (Homo sapiens); experiment: Agonist activity at PPARalpha/PPARgamma in human NHEK cells assessed as upregulation of FADS2 mRNA at 10 uM incubated for 3 days by qRT-PCR analysis; format: cell-based; conditions: filed as agonist, time 3.0 day
[33] = Induction of adipogenesis in human AT-MSC assessed as adiponectin secretion at 300 uM in IDX medium incubated for 5 days by ELISA (reference value: 100 +/- 15 pg/ml); format: functional, Adipose tissue derived mesenchymal stem cell; conditions: time 5 day

Compound: Cc1cccc(Nc2cc(Cl)nc(SCC(=O)O)n2)c1C
- Activity [1]: Active
- Activity [2]: Active
- Activity [3]: Active
- inhibition (NHEK [4]): Active
- inhibition (NHEK [5]): Active
- inhibition (NHEK [6]): Active
- inhibition (NHEK [7]): Active
- Activity [8]: inactive
- Activity [9]: inactive
- Activity [10]: inactive
- Activity [11]: Active
- Activity [12]: Active
- Activity [13]: inactive
- Activity [14]: inactive
- fold change (FC) [15]: 4.53

Compound: Cc1c(C)c2c(c(C)c1O)CCC(C)(COc1ccc(CC3SC(=O)NC3=O)cc1)O2 (configuration not stated) [TROGLITAZONE]
- EC50 [16]: 0.86 µM
- inhibition (NHEK [17]): Active
- inhibition (NHEK [18]): inactive
- inhibition (NHEK [19]): Active
- inhibition (NHEK [20]): inactive

Compound: COc1ccccc1/C=C/C(=O)OCc1cc(=O)c(O)co1
- EC50 [16]: 20.6 µM
- Activity [21]: Active
- fold change (FC) [22]: 2.21
- Activity [23]: Active
- Activity [24]: 221 pg/mL

Compound: COc1cc(OC)c(OC)cc1/C=C/C(=O)OCc1cc(=O)c(O)co1
- Activity [24]: 103 pg/mL

Compound: COc1cccc(/C=C/C(=O)OCc2cc(=O)c(O)co2)c1OC
- Activity [1]: Active
- Activity [2]: Active
- Activity [3]: Active
- Activity [25]: Dose-dependent effect
- Ki [26]: 6.7 µM
- Activity [27]: Dose-dependent effect
- Ki [28]: 8 µM
- EC50 [16]: 14.8 µM
- Activity [21]: Active
- fold change (FC) [22]: 2.81
- Activity [23]: Active
- Activity [24]: 281 pg/mL
- inhibition (NHEK [4]): Active
- inhibition (NHEK [5]): Active
- inhibition (NHEK [6]): Active
- inhibition (NHEK [7]): Active
- Activity [8]: inactive
- Activity [9]: inactive
- Activity [10]: inactive
- Activity [29]: Active
- Activity [30]: Active
- Activity [31]: Active
- Activity [32]: Active
- Activity [11]: Active
- Activity [12]: Active
- Activity ([13]; filed as agonist): Active
- Activity ([14]; filed as agonist): Active
- Activity [15]: Active

Compound: COc1ccc(/C=C/C(=O)OCc2cc(=O)c(O)co2)cc1OC
- Activity [24]: 120 pg/mL

Compound: COc1cc(/C=C/C(=O)OCc2cc(=O)c(O)co2)cc(OC)c1OC
- Activity [24]: 137 pg/mL

Compound: O=C(/C=C/c1ccc2c(c1)OCO2)OCc1cc(=O)c(O)co1
- Activity [24]: 164 pg/mL

Compound: COc1cc(/C=C/C(=O)OCc2cc(=O)c(O)co2)cc(OC)c1
- Activity [24]: 67 pg/mL

Compound: COc1cc(OC)c(/C=C/C(=O)OCc2cc(=O)c(O)co2)c(OC)c1
- Activity [24]: 87 pg/mL

Compound: COc1ccc(/C=C/C(=O)OCc2cc(=O)c(O)co2)cc1
- Activity [24]: 138 pg/mL

Compound: CC(=O)Oc1ccccc1C(=O)O [ASPIRIN]
- Activity [33]: 197 pg/mL

Compound: COc1cccc(/C=C/C(=O)OCc2cc(=O)c(O)co2)c1
- EC50 [16]: 36.6 µM
- Activity [21]: Active
- fold change (FC) [22]: 2.65
- Activity [23]: Active
- Activity [24]: 265 pg/mL

Compound: COc1ccc(/C=C/C(=O)OCc2cc(=O)c(O)co2)c(OC)c1OC
- Activity [24]: 137 pg/mL
